{"source": "patent US11326174B2", "about": "“Engineered yeast strains enabling anaerobic xylose fermentation decoupled from microbial growth” (Wisconsin Alumni Research Foundation, priority 2018, dated 2022)", "key": {"tpk2^as": {"target": "T1, tpk2^as (Saccharomyces cerevisiae, UniProt P06245, M147G)", "T1 construct": "tpk2as repair templates were generated by PCR of the whole ORF of tpk2as; endogenous in cells; host or cells: S. cerevisiae Y133 tpk1Δtpk3Δtpk2^as; allele placed at the chromosomal TPK2 locus by CRISPR/Cas9 editing", "T1 sequence (P06245 whole entry M147G)": "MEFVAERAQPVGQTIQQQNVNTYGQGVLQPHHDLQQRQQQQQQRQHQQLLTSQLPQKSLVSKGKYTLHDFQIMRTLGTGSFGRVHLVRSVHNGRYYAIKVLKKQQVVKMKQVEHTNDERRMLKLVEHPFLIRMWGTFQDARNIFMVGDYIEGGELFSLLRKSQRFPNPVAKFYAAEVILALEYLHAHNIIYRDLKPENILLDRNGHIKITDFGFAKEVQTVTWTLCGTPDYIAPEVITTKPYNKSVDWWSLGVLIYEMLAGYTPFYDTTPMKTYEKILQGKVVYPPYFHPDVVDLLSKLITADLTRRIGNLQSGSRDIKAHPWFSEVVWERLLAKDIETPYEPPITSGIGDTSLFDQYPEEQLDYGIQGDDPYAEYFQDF", "test": "Inhibition of analog-sensitive PKA in Y133 tpk1Δtpk3Δtpk2^as during anaerobic growth on xylose", "format": "cell-based", "settings": "10 μM 1-NM-PP1 added after 17 hours", "excerpt": "Y133 tpk1Δtpk3Δtpk2^as was generated using CRISPR/Cas9-mediated genome editing. TPK1 and TPK3 were deleted in Y133 independently and verified by PCR. sgRNA sequence ([…]) that targeted the location within TPK2 to be replaced was cloned into the pXIPHOS vector using Not1 (GenBank accession MG897154), which contains the constitutive RNR2 promoter driving the Cas9 gene and NatMX resistance gene, using gapped plasmid repair using HiFi DNA Assembly Master Mix from NEB. tpk2as repair templates were generated by PCR of the whole ORF of tpk2as from a strain containing mutants of the TPK genes that are sensitive to the ATP-analogue inhibitor 1-NM-PP1 (TPK1 M164G, TPK2 M147G, TPK3 M165G). Purified repair templates were co-transformed at a 20-fold molar excess with the pXIPHOS-TPK2 sgRNA plasmid into Y133 tpk1Δtpk3Δ strain. Colonies resistant to nourseothricin were restreaked onto YPD two times to remove the plasmid (and were verified to now be sensitive to nourseothricin) and tpk2as presence was verified by sequencing. Y133 tpk1Δtpk3Δtpk2^as was grown in xylose anaerobically for 17 hours at which point 10 μM 1-NM-PP1 or DMSO control was added to the cultures."}, "PKA": {"system": "PKA", "test": "PKA activity assay: in vitro phosphorylation of a PKA substrate by cell lysate", "format": "biochemical, Saccharomyces cerevisiae", "settings": "50 μM H-89", "protocol": "PKA activity assay. Measurement of PKA activity was performed on lysed cells using the PKA Kinase Activity Assay Kit from ABCAM. Cultures were grown anaerobically in xylose for three doublings (to OD˜0.5), at which 10 mL of cells were collected by centrifugation for 3 minutes at 3000 rpm, in preparation for lysis. Supernatant was removed under anaerobic conditions and the cells were resuspended in 1 mL of SB buffer (1 M sorbitol, 20 mM Tris HCl, pH 7.4) with 300 units of zymolyase (Amsbio) and 10 μL of protease inhibitor cocktail IV (Millipore). Cells were incubated for 10 minutes at 30° C. anaerobically. Cells were collected by […] for 5 minutes at 350×g and washed 1× with SB buffer under anaerobic conditions. Cells were resuspended in 750 μL HLB buffer (10 mM Tris HCl, pH 7.4, 10 mM NaCl, 3 mM MgCl2, 0.3% (vol/vol) NP-40, 10% (vol/vol) glycerol) with 10 μL protease inhibitor cocktail IV and incubated on ice for 10 minutes, anaerobically. […] Lysis was verified using microscopy and total protein abundance was determined using a Bradford assay. […] The reaction was detected using a TECAN Infinite 200 Pro with a wavelength of 450 nm. […] Relative PKA activity was calculated by subtracting […] to remove background, followed by normalization to total protein abundance for each sample. […]"}, "Y128": {"system": "Y128", "test": "Inhibition of growth using hydroxyurea during anaerobic growth on xylose", "format": "cell-based, Saccharomyces cerevisiae", "settings": "400 mM hydroxyurea added after 17 hours", "protocol": "Inhibition of growth using hydroxyurea. Growth inhibition was performed using 400 mM hydroxyurea, added after 17 hours of anaerobic growth in xylose. Before and after growth inhibition, OD600 as well as sugar and ethanol concentrations were measured as above."}}, "note": "“Also recorded” adds a separate entry of the source."}
{"smiles": "CC(C)(C)n1nc(Cc2cccc3ccccc23)c2c(N)ncnc21", "note": "[Strain 1-NM-PP1]", "values": [{"measurement": "Effect on growth and fermentation during anaerobic xylose utilization", "setting": "tpk2^as", "value": "rapidly inhibited growth and fermentation"}]}
{"smiles": "O=S(=O)(NCCNC/C=C/c1ccc(Br)cc1)c1cccc2cnccc12", "note": "[Strain H-89]", "values": [{"measurement": "Effect on phosphorylation of a PKA substrate in vitro", "setting": "PKA; lysate from Y128 grown anaerobically on xylose", "value": "blocked"}, {"measurement": "Effect on phosphorylation of a PKA target in vitro", "setting": "PKA; lysate from Y184 bcy1Δ grown anaerobically on xylose", "value": "blocked"}]}
{"smiles": "NC(=O)NO", "note": "[hydroxyurea]", "values": [{"measurement": "Effect on anaerobic xylose utilization", "setting": "Y128", "value": "does not promote anaerobic xylose utilization; also recorded: halted xylose utilization"}, {"measurement": "Effect on growth (OD600)", "setting": "Y128", "value": "inhibits growth"}]}
